Source: US9120820B2, “Fluorescent molecular probes for use in assays that measure test compound competitive binding with SAM-utilizing proteins” (CAYMAN CHEMICAL COMPANY, INCORPORATED, priority 2011, dated 2015)
“And” between values parts separate entries of the source, which are not always exact repeats. Identical values can stand only once. Like-named read-outs stand apart in the source and are kept apart here.

Legend:
ASH2L = ASH2L (Homo sapiens, UniProt Q9UBL3); test: Fluorescence polarization saturation binding of fluorescent probe to ASH2L; details: saturation-binding format, read-out: Sinefungin Probe 1A Affinity
Method: (§1) Sinefungin Probe 1A was tested for the ability to bind to 16 proteins, including several non-methlytransferase protein controls (Table 2). This probe binds to 4 methyltransferases (SET7/9, G9a, GLP, MLL) with Kd values <2 μM.

SET7/9 = target: T1, SET7/9 (Homo sapiens, UniProt Q8WTS6); test: Fluorescence polarization saturation binding of fluorescent probe to SET7/9
T1 construct: purchased Cayman 10320
T1 sequence (Q8WTS6 1-366): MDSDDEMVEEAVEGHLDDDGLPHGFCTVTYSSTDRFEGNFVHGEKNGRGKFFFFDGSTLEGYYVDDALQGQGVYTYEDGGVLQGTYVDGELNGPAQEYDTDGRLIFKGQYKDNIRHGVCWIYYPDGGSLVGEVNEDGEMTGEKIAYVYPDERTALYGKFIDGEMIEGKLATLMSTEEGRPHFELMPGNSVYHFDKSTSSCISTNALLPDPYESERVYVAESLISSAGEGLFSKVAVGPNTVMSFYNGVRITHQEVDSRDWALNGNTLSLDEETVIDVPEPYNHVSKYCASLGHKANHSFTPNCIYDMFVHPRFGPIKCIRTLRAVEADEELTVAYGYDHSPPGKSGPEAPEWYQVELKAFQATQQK
Method: (§2) Methods: The experiment was performed once, with two replicate wells for all methyltransferases per condition. The sole exception to this is NSD2 (see details below). The assay was performed in a ½ area, black, 96-well plate (Corning #3686) in a final volume of 30 μL. Methyltransferases (Table 1) were serially diluted two-fold in FP buffer (Cayman Catalog #600028) and 15 μL of a given dilution were added per well to the assay plate. Fifteen microliters of sinefungin probe 1A (10 nM) were added to each well, giving a final sinefungin probe 1A concentration of 5 nM. This concentration of sinefungin probe 1A was chosen because it had at least a 10-fold increase in fluorescence (excitation max 575 nm/emission max 615 nm) over background (buffer). The mixture was incubated in the dark at room temperature for 30 minutes and its fluorescence polarization was read using a BioTek Synergy 4.

KMT5b = KMT5b (Homo sapiens, UniProt Q4FZB7); test: Fluorescence polarization saturation binding of fluorescent probe to KMT5b; details: saturation-binding format, mean ± SEM, read-out: Sinefungin Probe 1A Affinity
Method: as §1

GLP = target: T2, GLP (Homo sapiens, UniProt Q9H9B1); test: Fluorescence polarization saturation binding of fluorescent probe to GLP; details: saturation-binding format, mean ± SEM, read-out: Sinefungin Probe 1A Affinity
T2 sequence (Q9H9B1 1-1298): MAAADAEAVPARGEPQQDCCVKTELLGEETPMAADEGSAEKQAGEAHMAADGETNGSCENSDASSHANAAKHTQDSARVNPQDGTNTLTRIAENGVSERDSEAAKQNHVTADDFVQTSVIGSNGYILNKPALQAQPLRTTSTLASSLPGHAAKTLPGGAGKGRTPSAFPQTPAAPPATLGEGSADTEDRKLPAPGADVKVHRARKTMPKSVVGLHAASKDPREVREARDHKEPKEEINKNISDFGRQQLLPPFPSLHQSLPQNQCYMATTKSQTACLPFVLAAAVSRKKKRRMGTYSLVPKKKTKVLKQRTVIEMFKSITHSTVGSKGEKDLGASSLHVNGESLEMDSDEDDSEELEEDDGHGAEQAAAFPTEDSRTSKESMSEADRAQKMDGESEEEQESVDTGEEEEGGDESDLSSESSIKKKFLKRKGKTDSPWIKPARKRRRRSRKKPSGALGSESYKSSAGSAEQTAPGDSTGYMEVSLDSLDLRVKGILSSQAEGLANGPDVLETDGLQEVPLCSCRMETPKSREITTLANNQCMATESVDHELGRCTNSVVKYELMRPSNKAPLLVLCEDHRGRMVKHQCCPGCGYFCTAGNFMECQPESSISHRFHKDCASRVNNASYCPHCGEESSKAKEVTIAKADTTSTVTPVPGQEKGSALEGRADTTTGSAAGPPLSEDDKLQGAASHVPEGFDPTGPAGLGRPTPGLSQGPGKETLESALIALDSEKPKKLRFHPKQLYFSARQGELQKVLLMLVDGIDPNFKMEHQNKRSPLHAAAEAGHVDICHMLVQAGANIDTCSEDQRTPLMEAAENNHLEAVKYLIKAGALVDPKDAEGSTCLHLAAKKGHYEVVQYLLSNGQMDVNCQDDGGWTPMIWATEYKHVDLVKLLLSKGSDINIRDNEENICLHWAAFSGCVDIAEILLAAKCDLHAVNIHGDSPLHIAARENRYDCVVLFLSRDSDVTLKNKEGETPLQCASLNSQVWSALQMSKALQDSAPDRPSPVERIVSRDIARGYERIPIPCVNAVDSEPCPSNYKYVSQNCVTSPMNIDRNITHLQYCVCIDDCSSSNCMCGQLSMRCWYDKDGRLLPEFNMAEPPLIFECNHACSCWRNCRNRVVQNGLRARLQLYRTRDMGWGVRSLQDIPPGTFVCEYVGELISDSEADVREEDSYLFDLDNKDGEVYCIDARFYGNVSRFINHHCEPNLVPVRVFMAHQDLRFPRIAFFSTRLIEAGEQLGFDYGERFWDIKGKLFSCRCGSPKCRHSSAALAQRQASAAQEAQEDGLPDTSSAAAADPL
Method: as §1

PRMT1 = target: T3, PRMT1 (Homo sapiens, UniProt Q99873); test: Fluorescence polarization saturation binding of fluorescent probe to PRMT1
T3 construct: purchased Cayman
Method: as §2

MLL = MLL (Homo sapiens, UniProt Q03164); test: Fluorescence polarization saturation binding of fluorescent probe to MLL; details: saturation-binding format, mean ± SEM, read-out: Sinefungin Probe 1A Affinity
Method: as §1

SET8 = target: T4, SET8 (Homo sapiens, UniProt Q9NQR1); test: Fluorescence polarization saturation binding of fluorescent probe to SET8
T4 construct: purchased Cayman 10319
T4 sequence (Q9NQR1 1-393): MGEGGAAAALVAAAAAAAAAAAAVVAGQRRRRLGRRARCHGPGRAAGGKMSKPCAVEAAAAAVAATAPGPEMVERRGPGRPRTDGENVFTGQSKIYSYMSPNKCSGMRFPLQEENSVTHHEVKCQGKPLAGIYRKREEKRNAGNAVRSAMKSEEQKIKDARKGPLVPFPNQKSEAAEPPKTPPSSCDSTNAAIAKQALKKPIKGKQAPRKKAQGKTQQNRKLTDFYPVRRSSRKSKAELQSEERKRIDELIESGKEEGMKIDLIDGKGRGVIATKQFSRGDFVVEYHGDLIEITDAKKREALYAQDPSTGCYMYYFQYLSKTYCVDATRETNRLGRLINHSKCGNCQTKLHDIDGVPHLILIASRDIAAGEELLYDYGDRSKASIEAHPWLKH
Method: as §2

Trypsin = test: Fluorescence polarization saturation binding of fluorescent probe to Trypsin (control protein); details: saturation-binding format, read-out: Sinefungin Probe 1A Affinity
Method: as §1

T3 sequence (Q99873 whole entry): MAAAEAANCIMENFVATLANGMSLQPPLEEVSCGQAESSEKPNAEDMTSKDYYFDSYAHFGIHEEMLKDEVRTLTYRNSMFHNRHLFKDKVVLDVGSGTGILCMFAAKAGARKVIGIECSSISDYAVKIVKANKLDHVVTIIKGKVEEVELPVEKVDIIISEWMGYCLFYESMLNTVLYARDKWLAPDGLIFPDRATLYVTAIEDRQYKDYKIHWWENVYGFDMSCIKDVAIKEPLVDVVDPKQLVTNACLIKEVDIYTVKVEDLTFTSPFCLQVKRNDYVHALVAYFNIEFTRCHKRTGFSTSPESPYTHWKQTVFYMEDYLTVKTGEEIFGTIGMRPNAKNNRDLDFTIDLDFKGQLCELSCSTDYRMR
KMT5b, sequence (Q4FZB7 whole entry, species assumed): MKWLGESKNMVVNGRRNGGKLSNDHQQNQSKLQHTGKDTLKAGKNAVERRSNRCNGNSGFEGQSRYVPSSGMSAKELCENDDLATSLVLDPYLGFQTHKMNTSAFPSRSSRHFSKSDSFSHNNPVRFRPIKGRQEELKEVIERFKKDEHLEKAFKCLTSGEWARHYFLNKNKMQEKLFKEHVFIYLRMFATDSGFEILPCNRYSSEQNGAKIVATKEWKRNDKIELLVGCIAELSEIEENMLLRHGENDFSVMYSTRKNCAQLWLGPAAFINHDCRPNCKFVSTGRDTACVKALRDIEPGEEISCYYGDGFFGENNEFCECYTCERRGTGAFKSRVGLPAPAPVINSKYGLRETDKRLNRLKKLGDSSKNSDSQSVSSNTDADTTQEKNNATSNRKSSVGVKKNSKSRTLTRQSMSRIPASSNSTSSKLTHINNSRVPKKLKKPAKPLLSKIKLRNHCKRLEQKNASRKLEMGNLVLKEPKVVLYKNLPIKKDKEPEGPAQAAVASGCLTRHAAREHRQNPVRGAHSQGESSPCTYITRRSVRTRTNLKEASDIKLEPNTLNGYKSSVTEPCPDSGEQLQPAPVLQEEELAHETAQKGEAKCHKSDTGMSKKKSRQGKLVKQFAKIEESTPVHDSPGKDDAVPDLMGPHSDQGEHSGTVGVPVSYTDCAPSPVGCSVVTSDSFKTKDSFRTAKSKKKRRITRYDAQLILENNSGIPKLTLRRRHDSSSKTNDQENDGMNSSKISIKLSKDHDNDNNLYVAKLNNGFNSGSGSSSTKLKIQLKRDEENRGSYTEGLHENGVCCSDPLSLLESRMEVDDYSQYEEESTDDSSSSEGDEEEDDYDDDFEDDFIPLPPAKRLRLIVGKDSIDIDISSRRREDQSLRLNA
MLL, sequence (Q03164 3785-3969 limits assumed): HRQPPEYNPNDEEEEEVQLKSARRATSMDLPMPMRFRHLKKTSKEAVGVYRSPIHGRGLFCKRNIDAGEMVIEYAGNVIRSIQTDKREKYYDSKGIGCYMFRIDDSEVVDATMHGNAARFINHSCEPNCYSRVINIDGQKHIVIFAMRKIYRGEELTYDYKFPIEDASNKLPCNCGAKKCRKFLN
ASH2L, sequence (Q9UBL3 whole entry, species assumed): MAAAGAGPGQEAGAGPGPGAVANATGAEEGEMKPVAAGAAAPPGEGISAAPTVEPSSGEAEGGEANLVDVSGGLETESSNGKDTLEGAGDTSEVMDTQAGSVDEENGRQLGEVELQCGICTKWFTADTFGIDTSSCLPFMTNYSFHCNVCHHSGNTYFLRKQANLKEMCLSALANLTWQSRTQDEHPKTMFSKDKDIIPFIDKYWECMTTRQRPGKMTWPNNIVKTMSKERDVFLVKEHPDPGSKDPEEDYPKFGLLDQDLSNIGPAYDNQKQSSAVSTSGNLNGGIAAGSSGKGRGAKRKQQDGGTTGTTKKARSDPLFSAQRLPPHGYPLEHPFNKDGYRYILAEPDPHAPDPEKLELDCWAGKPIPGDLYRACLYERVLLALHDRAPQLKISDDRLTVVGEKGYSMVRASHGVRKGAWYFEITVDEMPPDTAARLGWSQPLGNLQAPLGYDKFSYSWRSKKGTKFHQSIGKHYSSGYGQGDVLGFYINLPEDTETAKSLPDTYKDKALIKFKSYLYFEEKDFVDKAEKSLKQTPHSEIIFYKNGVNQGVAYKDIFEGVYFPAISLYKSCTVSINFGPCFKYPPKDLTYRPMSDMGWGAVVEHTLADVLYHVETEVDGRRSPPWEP

- Kd (ASH2L): > 10000 nM
- Kd (SET7/9; Example 8, SET7/9, 5 nM probe, experiment performed once, FIG. 2, read-out: Kd): 17 nM
- Kd (SET7/9; SET7/9, saturation-binding format, mean ± SEM, at least two independent experiments, read-out: Sinefungin Probe 1A Affinity): < 2000 nM and 27 nM
- Kd (KMT5b): 6100 ± 800 nM
- Kd (GLP): 580 ± 50 nM
- Kd (PRMT1; PRMT1, saturation-binding format, read-out: Sinefungin Probe 1A Affinity): > 1200 nM
- Kd (MLL): 750 ± 65 nM
- Kd (SET8; SET8, saturation-binding format, read-out: Sinefungin Probe 1A Affinity): > 2000 nM
- Kd (Trypsin): > 10000 nM
Structure (SMILES): Nc1ncnc2c1ncn2[C@@H]1O[C@H](C[C@@H](N)CC[C@H](N)C(=O)O)[C@@H](OCc2cnnn2CCCCCCNC(=O)OC2CCN(C(=O)c3ccccc3C3=c4cc5c6c(c4Oc4c3cc3c7c4CCCN7CCC3)CCC[N+]=6CCC5)CC2)[C@H]1O [Sinefungin Probe 1A]
- measurable affinity for the probe (PRMT1; Example 8, PRMT1, 5 nM probe, FIG. 2): only SET7/9 and G9a displayed measurable affinity
- measurable affinity for the probe (SET8; Example 8, SET8, 5 nM probe, FIG. 2): only SET7/9 and G9a displayed measurable affinity
